Measured values as given in patent US20260092179A1, “GENETICALLY MODIFIED HOST CELLS PRODUCING VIOLACEIN, ANALOGUES, AND DERIVATIVES THEREOF” (OCTARINE BIO APS, priority 2022, published 2026).
In brackets after ≈: the same amount, converted by molar mass. One block for each molecule: values may come before it.

What was measured:
[1] = Artificial light stability of dyed fabrics (colour fastness, ΔE); type: physicochemical; conditions: for ΔE: before vs after LED lamp, room temperature, 16 h
Description: In order to assess the stability and colour fastness of violacein and violacein derivatives dyed onto fabrics, dyed fabrics were subjected to a number of conditions. Fabrics were dyed according to Example 18 and colour coordinates and colour change before and after exposure to a given condition were determined as described in Example 18. To measure temperature stability, fabrics were incubated in an oven set to 80° c. for 4 h. To measure stability under acid and alkaline conditions, fabrics were fully submerged in water solutions set to pH 8 with NaOH and pH 5 with HCl and incubated at room temperature for 30 minutes. Fabrics were then incubated at 37° c. for 4 h. To measure stability during laundering, fabrics were washed at 30° c. under the “mix” setting of a Siemens IQ300 washing machine, then dried in a Siemens IQ300 dryer until dry. To measure artificial light stability, fabrics were placed under an LED lamp at room temperature for 16 h. To measure UV light stability, fabrics were placed under a UV lamp at room temperature for 1 h.

[2] = Solubility of violacein in 100% methanol (stock solutions); type: physicochemical; conditions: organic solvent or mixture, read-out: soluble in 100% methanol
Excerpt: In Example 7, S. cerevisiae was engineered to produce violacein and 3 other violacein derivatives (deoxyviolacein, proviolacein, and prodeoxyviolacein). However, during cultivation experiments a number of issues were observed. […] On agar plate we also observed a number of colonies losing their colour, indicating rapid selection against the introduced biosynthetic pathway. […] Issues with toxicity, solubility, and product export have significant negative effects on production of these compounds and limit the commercial viability. To overcome these issues, we investigated whether glycosylation of the compounds could provide a positive impact and improve production. Because violacein and violacein derivatives are not naturally glycosylated, we first sought to identify heterologous glycosyltransferase enzymes displaying promiscuous activity towards these compounds by running a series of in vitro glycosyltransferase enzyme assays using violacein and violacein derivatives as substrate

[3] = Acrylic, after test (LED lamp, room temperature, 16 h)
[4] = Bleached cotton, after test (LED lamp, room temperature, 16 h)
[5] = Diacetate, after test (LED lamp, room temperature, 16 h)
[6] = Nylon 6,6, after test (LED lamp, room temperature, 16 h)
[7] = Polyester, after test (LED lamp, room temperature, 16 h)
[8] = Wool, after test (LED lamp, room temperature, 16 h)

SMILES: O=C1N=C(c2c[nH]c3ccc(O)cc23)C=C1c1c[nH]c2ccccc12 [proviolacein]
- L [1, 3]: 58.47
- a [1, 3]: −0.05
- b [1, 3]: 2.76
- L ([1]; Acrylic, before test): 56.17
- a ([1]; Acrylic, before test): −0.68
- b ([1]; Acrylic, before test): 3.21
- ΔE ([1]; Acrylic): 2.43
- L [1, 4]: 62.69
- a [1, 4]: 3.04
- b [1, 4]: 3.55
- L ([1]; Bleached cotton, before test): 58.83
- a ([1]; Bleached cotton, before test): −0.52
- b ([1]; Bleached cotton, before test): 4.04
- ΔE ([1]; Bleached cotton): 5.27
- L [1, 5]: 63.43
- a [1, 5]: 4.56
- b [1, 5]: 7.02
- L ([1]; Diacetate, before test): 56.45
- a ([1]; Diacetate, before test): 3.46
- b ([1]; Diacetate, before test): 5.75
- ΔE ([1]; Diacetate): 7.18
- L [1, 6]: 51.07
- a [1, 6]: −0.68
- b [1, 6]: −2.49
- L ([1]; Nylon 6,6, before test): 47.03
- a ([1]; Nylon 6,6, before test): −1.98
- b ([1]; Nylon 6,6, before test): −2.52
- ΔE ([1]; Nylon 6,6): 4.24
- L [1, 7]: 65.01
- a [1, 7]: −0.35
- b [1, 7]: 1.74
- L ([1]; Polyester, before test): 59.49
- a ([1]; Polyester, before test): −1.38
- b ([1]; Polyester, before test): 2.13
- ΔE ([1]; Polyester): 5.63
- L [1, 8]: 67.51
- a [1, 8]: −0.15
- b [1, 8]: 6.46
- L ([1]; Wool, before test): 65.25
- a ([1]; Wool, before test): −0.55
- b ([1]; Wool, before test): 5.71
- ΔE ([1]; Wool): 2.41

- L [1, 3]: 64.84
- a [1, 3]: 0.76
- b [1, 3]: 2.12
- L ([1]; Acrylic, before test): 60.52
- a ([1]; Acrylic, before test): 1.59
- b ([1]; Acrylic, before test): −2.77
- ΔE ([1]; Acrylic): 6.58
- L [1, 4]: 62.47
- a [1, 4]: 2
- b [1, 4]: −6.81
- L ([1]; Bleached cotton, before test): 60.49
- a ([1]; Bleached cotton, before test): 0.97
- b ([1]; Bleached cotton, before test): −7.49
- ΔE ([1]; Bleached cotton): 2.33
- L [1, 5]: 49.82
- a [1, 5]: 9.13
- b [1, 5]: −9.9
- L ([1]; Diacetate, before test): 47.05
- a ([1]; Diacetate, before test): 13.99
- b ([1]; Diacetate, before test): −17.37
- ΔE ([1]; Diacetate): 9.33
- L [1, 6]: 46.23
- a [1, 6]: 5.57
- b [1, 6]: −18.4
- L ([1]; Nylon 6,6, before test): 43.65
- a ([1]; Nylon 6,6, before test): 5.57
- b ([1]; Nylon 6,6, before test): −20.95
- ΔE ([1]; Nylon 6,6): 3.63
- L [1, 7]: 70.32
- a [1, 7]: 0.28
- b [1, 7]: 2.09
- L ([1]; Polyester, before test): 64.39
- a ([1]; Polyester, before test): 1.76
- b ([1]; Polyester, before test): −4.83
- ΔE ([1]; Polyester): 9.23
- L [1, 8]: 69.63
- a [1, 8]: 0.44
- b [1, 8]: 3.2
- L ([1]; Wool, before test): 64.28
- a ([1]; Wool, before test): −0.4
- b ([1]; Wool, before test): −0.37
- ΔE ([1]; Wool): 6.49
SMILES: O=C1NC(c2c[nH]c3ccccc23)=C/C1=C1\C(=O)Nc2ccccc21 [deoxyviolacein]

- L [1, 3]: 69.82
- a [1, 3]: 3.01
- b [1, 3]: 3.46
- L ([1]; Acrylic, before test): 65.94
- a ([1]; Acrylic, before test): 3.06
- b ([1]; Acrylic, before test): 1.37
- ΔE ([1]; Acrylic): 4.41
- L [1, 4]: 62.61
- a [1, 4]: 4.18
- b [1, 4]: −6.26
- L ([1]; Bleached cotton, before test): 60.03
- a ([1]; Bleached cotton, before test): 2.81
- b ([1]; Bleached cotton, before test): −7.43
- ΔE ([1]; Bleached cotton): 3.15
- L [1, 5]: 52.2
- a [1, 5]: 6.06
- b [1, 5]: 1.03
- L ([1]; Diacetate, before test): 43.88
- a ([1]; Diacetate, before test): 8.03
- b ([1]; Diacetate, before test): 13.02
- ΔE ([1]; Diacetate): 14.73
- L [1, 6]: 34.82
- a [1, 6]: 4.72
- b [1, 6]: −17.83
- L ([1]; Nylon 6,6, before test): 38.2
- a ([1]; Nylon 6,6, before test): 11.52
- b ([1]; Nylon 6,6, before test): −16.9
- ΔE ([1]; Nylon 6,6): 7.65
- L [1, 7]: 73.11
- a [1, 7]: 2.28
- b [1, 7]: 1.66
- L ([1]; Polyester, before test): 68.58
- a ([1]; Polyester, before test): 3.06
- b ([1]; Polyester, before test): −1.75
- ΔE ([1]; Polyester): 5.72
- L [1, 8]: 71.32
- a [1, 8]: 1.18
- b [1, 8]: 3.25
- L ([1]; Wool, before test): 67.82
- a ([1]; Wool, before test): 1.06
- b ([1]; Wool, before test): 0.85
- ΔE ([1]; Wool): 4.25
- solubility [2]: 5 mM (≈ 1720 µg/mL)
SMILES: O=C1NC(c2c[nH]c3ccc(O)cc23)=C/C1=C1\C(=O)Nc2ccccc21 [violacein]
